This is an account of results in patent US8148373B2, “Compounds” (AstraZeneca AB, priority 2008, dated 2012).

Each structure is given as a SMILES string. Structures can show the parent of a compound that is named as a salt.

The target in test [1] is T1, Adrenergic β2 (H292 cells) (Homo sapiens, UniProt P07550).
T1 construct: endogenous in cells; host or cells: H292 cells
As to the kind of experiment: Assay for Adrenergic β2 Mediated cAMP Production (concentration response, AlphaScreen cAMP detection). The format is cell-based. The conditions noted are these: for EC50: cAMP production, 60 minutes at room temperature, 300 μM rolipram, read-out: β2 pEC50 (converted); for β2 Intrinsic activity: fraction relative to the maximum activity determined for formoterol. A digest of the protocol: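 Intrinsic activity is relative to the per-experiment formoterol maximum, with pEC50 from a four-parameter logistic fit of cAMP levels quantified by AlphaScreen against standards. Cells (H292) got 300 μM rolipram for 10 min, then compound for 60 min at room temperature, 1% DMSO final.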

Test [2] concerns the target T2, human muscarinic acetylcholine M3 receptor (M3-ACh) (Homo sapiens, UniProt P20309).
T2 construct: expressed in transfected cells; host or cells: CHO-K1 (Chinese Hamster Ovary) cell membranes
The test is described as follows: Muscarinic 3 Receptor Binding Assay ([3H]NMS competition, SPA). The conditions noted are these: [3H]NMS 0.1 nM, CHO-K1 cell membranes, 16 hours at room temperature; read-out: M3 pIC50 (converted). The procedure, abridged:
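Competition SPA binding of 0.1 nM [3H]NMS (quarter Kd) to membranes from CHO-K1 cells expressing human M3, in 20 mM HEPES pH 7.4, 5 mM MgCl2, 1% DMSO. Incubated 16 h at room temperature; non-specific binding with 1 µM atropine. pIC50 from 50% reduction of specific binding.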

T1 sequence (P07550 whole entry): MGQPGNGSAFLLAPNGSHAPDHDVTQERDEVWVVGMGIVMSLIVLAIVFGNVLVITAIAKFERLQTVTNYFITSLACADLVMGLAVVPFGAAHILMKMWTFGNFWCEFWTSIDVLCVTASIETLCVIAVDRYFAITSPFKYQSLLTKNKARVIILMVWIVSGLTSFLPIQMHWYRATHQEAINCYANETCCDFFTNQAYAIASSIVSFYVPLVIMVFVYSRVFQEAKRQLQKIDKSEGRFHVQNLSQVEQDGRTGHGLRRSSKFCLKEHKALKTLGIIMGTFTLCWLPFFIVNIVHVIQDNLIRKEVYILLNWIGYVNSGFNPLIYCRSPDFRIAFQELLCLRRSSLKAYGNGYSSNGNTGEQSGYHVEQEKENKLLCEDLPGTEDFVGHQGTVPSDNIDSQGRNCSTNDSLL
T2 sequence (P20309 whole entry): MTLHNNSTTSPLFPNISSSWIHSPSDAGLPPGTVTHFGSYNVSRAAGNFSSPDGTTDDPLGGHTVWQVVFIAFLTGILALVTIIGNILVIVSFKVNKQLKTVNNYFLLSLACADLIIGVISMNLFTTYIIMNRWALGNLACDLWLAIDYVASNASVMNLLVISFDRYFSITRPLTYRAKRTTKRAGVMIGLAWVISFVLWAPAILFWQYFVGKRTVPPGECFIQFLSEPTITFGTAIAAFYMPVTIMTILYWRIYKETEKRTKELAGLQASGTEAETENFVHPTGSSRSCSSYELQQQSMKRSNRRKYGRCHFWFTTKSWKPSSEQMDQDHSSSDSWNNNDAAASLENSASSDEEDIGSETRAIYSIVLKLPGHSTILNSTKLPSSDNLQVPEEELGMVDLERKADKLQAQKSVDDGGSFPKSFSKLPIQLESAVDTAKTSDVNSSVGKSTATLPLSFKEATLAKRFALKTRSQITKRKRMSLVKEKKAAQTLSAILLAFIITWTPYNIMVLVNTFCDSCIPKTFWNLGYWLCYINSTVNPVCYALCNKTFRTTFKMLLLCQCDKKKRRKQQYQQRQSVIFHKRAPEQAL

Consider `Cc1nc(C(=O)N2CCOC3(CCN(Cc4cccc(CCNC[C@H](O)c5ccc(O)c6[nH]c(=O)sc56)c4)CC3)CC2)cs1` [Example 89, (R)-4-Hydroxy-7-(1-hydroxy-2-(3-((10-(2-methylthiazole-4-carbonyl)-7-oxa-3,10-diazaspiro[5.6]dodecan-3-yl)methyl)phenethylamino)ethyl)benzo[d]thiazol-2(3H)-one ditrifluoroacetate], for which, in test [1], the EC50 is 1.58 nM and the “β2 Intrinsic activity” value amounted to 1. In test [2], the IC50 is 31.6 nM.
As to `CC(C)c1nc(C(=O)N2CCOC3(CCN(Cc4cccc(C(C)(C)CNC[C@H](O)c5ccc(O)c6[nH]c(=O)sc56)c4F)CC3)C2)cs1` [Example 90, (R)-7-(2-(2-(2-Fluoro-3-((4-(2-isopropylthiazole-4-carbonyl)-1-oxa-4,9-diazaspiro[5.5]undecan-9-yl)methyl)phenyl)-2-methylpropylamino)-1-hydroxyethyl)-4-hydroxybenzo[d]thiazol-2(3H)-one ditrifluoroacetate], in test [1], the EC50 is 200 nM and the “β2 Intrinsic activity” value stood at 0.9. Moreover, the IC50 in test [2] was 79.4 nM.
Turning to `CCc1cc(C(=O)N2CCOC3(CCN(Cc4cccc(CCNC[C@H](O)c5ccc(O)c6[nH]c(=O)sc56)c4F)CC3)C2)cs1` [Example 91, (R)-7-(2-(3-((4-(5-Ethylthiophene-3-carbonyl)-1-oxa-4,9-diazaspiro[5.5]undecan-9-yl)methyl)-2-fluorophenethylamino)-1-hydroxyethyl)-4-hydroxybenzo[d]thiazol-2(3H)-one ditrifluoroacetate], in test [1], the EC50 was 1.26 nM and the “β2 Intrinsic activity” value came out at 0.7. In test [2], the IC50 was 2 nM.
As for `CC(C)c1nc(C(=O)N2CCOC3(CCN(Cc4cccc(C(C)(C)CNC[C@H](O)c5ccc(O)c6[nH]c(=O)ccc56)c4F)CC3)C2)cs1` [Example 92, (R)-5-(2-(2-(2-Fluoro-3-((4-(2-isopropylthiazole-4-carbonyl)-1-oxa-4,9-diazaspiro[5.5]undecan-9-yl)methyl)phenyl)-2-methylpropylamino)-1-hydroxyethyl)-8-hydroxyquinolin-2(1H)-one ditrifluoroacetate], in test [1], the EC50 was 794 nM and the “β2 Intrinsic activity” value stood at 0.9. The IC50 in test [2] was 126 nM.
The corresponding values for `CCc1cc(C(=O)N2CCOC3(CCN(Cc4cc(F)cc(CCNC[C@H](O)c5ccc(O)c6[nH]c(=O)sc56)c4)CC3)C2)cs1` [Example 93, (R)-7-(2-(3-((4-(5-Ethylthiophene-3-carbonyl)-1-oxa-4,9-diazaspiro[5.5]undecan-9-yl)methyl)-5-fluorophenethylamino)-1-hydroxyethyl)-4-hydroxybenzo[d]thiazol-2(3H)-one ditrifluoroacetate] are 2.51 nM, 0.8 and 2.51 nM.
`Cc1nc(C(=O)N2CCOC3(CCN(CCOc4cccc(CNC[C@H](O)c5ccc(O)c6[nH]c(=O)ccc56)c4)CC3)C2)cs1` [Example 94, (R)-8-Hydroxy-5-(1-hydroxy-2-(3-(2-(4-(2-methylthiazole-4-carbonyl)-1-oxa-4,9-diazaspiro[5.5]undecan-9-yl)ethoxy)benzylamino)ethyl)quinolin-2(1H)-one ditrifluoroacetate]: in test [1], the EC50 was 1260 nM and the “β2 Intrinsic activity” value was determined as 0.7. In test [2], the IC50 was 12.6 nM.
On to `Cc1nc(C(=O)N2CCOC3(CCN(CCCOc4cccc(CNC[C@H](O)c5ccc(O)c6[nH]c(=O)ccc56)c4)CC3)C2)cs1` [Example 95, (R)-8-Hydroxy-5-(1-hydroxy-2-(3-(3-(4-(2-methylthiazole-4-carbonyl)-1-oxa-4,9-diazaspiro[5.5]undecan-9-yl)propoxy)benzylamino)ethyl)quinolin-2(1H)-one ditrifluoroacetate], for which, in test [1], the EC50 is greater than 3200 nM and the “β2 Intrinsic activity” value is “NV* (inactive up to a max concentration of 3.2 μM of test compound)”. Also, the IC50 in test [2] was 1.58 nM.
Regarding `Cc1nc(C(=O)N2CCOC3(CCN(Cc4cccc(CNC[C@H](O)c5ccc(O)c6[nH]c(=O)ccc56)c4)CC3)C2)cs1` [Example 96, (R)-8-Hydroxy-5-(1-hydroxy-2-(3-((4-(2-methylthiazole-4-carbonyl)-1-oxa-4,9-diazaspiro[5.5]undecan-9-yl)methyl)benzylamino)ethyl)quinolin-2(1H)-one ditrifluoroacetate], in test [1], the EC50 was greater than 3200 nM and the “β2 Intrinsic activity” value is “NV* (inactive up to a max concentration of 3.2 μM of test compound)”. Moreover, the IC50 in test [2] is 0.251 nM.
Consider `Cc1nc(C(=O)N2CCOC3(CCN(CCOc4cc(C)c(CNC[C@H](O)c5ccc(O)c6[nH]c(=O)ccc56)cc4C)CC3)C2)cs1` [Example 97, (R)-5-(2-(2,5-Dimethyl-4-(2-(4-(2-methylthiazole-4-carbonyl)-1-oxa-4,9-diazaspiro[5.5]undecan-9-yl)ethoxy)benzylamino)-1-hydroxyethyl)-8-hydroxyquinolin-2(1H)-one ditrifluoroacetate], for which, in test [1], the EC50 is greater than 3160 nM and the “β2 Intrinsic activity” value is on record as 1.5. In test [2], the IC50 is 6.31 nM.
In the case of `Cc1nc(C(=O)N2CCOC3(CCN(CCc4ccc(CNC[C@H](O)c5ccc(O)c6[nH]c(=O)ccc56)s4)CC3)C2)cs1` [Example 98, (R)-8-Hydroxy-5-(1-hydroxy-2-((5-(2-(4-(2-methylthiazole-4-carbonyl)-1-oxa-4,9-diazaspiro[5.5]undecan-9-yl)ethyl)thiophen-2-yl)methylamino)ethyl)quinolin-2(1H)-one ditrifluoroacetate], in test [1], the EC50 was 2000 nM and the “β2 Intrinsic activity” value is 0.4. For the same compound, the IC50 in test [2] is 1.26 nM.
For `CCc1cc(C(=O)N2CCOC3(CCN(Cc4ccc(F)c(CCNC[C@H](O)c5ccc(O)c6[nH]c(=O)sc56)c4)CC3)C2)cs1` [Example 99, (R)-7-(2-(5-((4-(5-Ethylthiophene-3-carbonyl)-1-oxa-4,9-diazaspiro[5.5]undecan-9-yl)methyl)-2-fluorophenethylamino)-1-hydroxyethyl)-4-hydroxybenzo[d]thiazol-2(3H)-one ditrifluoroacetate], in test [1], the EC50 was 7.94 nM and the “β2 Intrinsic activity” value was 0.8. The IC50 in test [2] is 1.58 nM.
As to `CCc1cc(C(=O)N2CCOC3(CCN(Cc4cc(CCNC[C@H](O)c5ccc(O)c6[nH]c(=O)sc56)ccc4F)CC3)C2)cs1` [Example 100, (R)-7-(2-(3-((4-(5-Ethylthiophene-3-carbonyl)-1-oxa-4,9-diazaspiro[5.5]undecan-9-yl)methyl)-4-fluorophenethylamino)-1-hydroxyethyl)-4-hydroxybenzo[d]thiazol-2(3H)-one ditrifluoroacetate], in test [1], the EC50 is 5.01 nM and the “β2 Intrinsic activity” value was 0.9. Also, in test [2], the IC50 was 1.58 nM.
The corresponding values for `CC(C)c1nc(C(=O)N2CCOC3(CCN(CCCCCCSCCNC[C@H](O)c4ccc(O)c5[nH]c(=O)sc45)CC3)C2)cs1` [Example 101, (R)-4-Hydroxy-7-(1-hydroxy-2-(2-(6-(4-(2-isopropylthiazole-4-carbonyl)-1-oxa-4,9-diazaspiro[5.5]undecan-9-yl)hexylthio)ethylamino)ethyl)benzo[d]thiazol-2(3H)-one formate] are 158 nM, 1 and 0.316 nM.
The like results for `CC(C)c1nc(C(=O)N2CCOC3(CCN(CCCCCC(C)(C)CNC[C@H](O)c4ccc(O)c5[nH]c(=O)sc45)CC3)C2)cs1` [Example 102, (R)-4-Hydroxy-7-(1-hydroxy-2-(7-(4-(2-isopropylthiazole-4-carbonyl)-1-oxa-4,9-diazaspiro[5.5]undecan-9-yl)-2,2-dimethylheptylamino)ethyl)benzo[d]thiazol-2(3H)-one formate] were, in that order, 200 nM, 0.9 and 1 nM.
For the compound `CC(C)c1nc(C(=O)N2CCOC3(CCN(CCCCCCCC(C)(C)CNC[C@H](O)c4ccc(O)c5[nH]c(=O)sc45)CC3)C2)cs1` [Example 103, (R)-4-Hydroxy-7-(1-hydroxy-2-(9-(4-(2-isopropylthiazole-4-carbonyl)-1-oxa-4,9-diazaspiro[5.5]undecan-9-yl)-2,2-dimethylnonylamino)ethyl)benzo[d]thiazol-2(3H)-one formate], in test [1], the EC50 is 251 nM and the “β2 Intrinsic activity” value stood at 1. In test [2], the IC50 was 1 nM.
With `Cc1cc(C(=O)N2CCOC3(CCN(CCOc4ccc(CNC[C@H](O)c5ccc(O)c6[nH]c(=O)sc56)cc4)CC3)C2)cs1` [Example 104, (R)-4-Hydroxy-7-(1-hydroxy-2-(4-(2-(4-(5-methylthiophene-3-carbonyl)-1-oxa-4,9-diazaspiro[5.5]undecan-9-yl)ethoxy)benzylamino)ethyl)benzo[d]thiazol-2(3H)-one formate], in test [1], the EC50 is 79.4 nM and the “β2 Intrinsic activity” value is on record as 0.9. The IC50 in test [2] is 3.16 nM.
Take `Cc1cc(C(=O)N2CCOC3(CCN(CCCCCCCCCNC[C@H](O)c4ccc(O)c5[nH]c(=O)sc45)CC3)C2)cs1` [Example 105, (R)-4-Hydroxy-7-(1-hydroxy-2-(9-(4-(5-methylthiophene-3-carbonyl)-1-oxa-4,9-diazaspiro[5.5]undecan-9-yl)nonylamino)ethyl)benzo[d]thiazol-2(3H)-one formate]: in test [1], the EC50 is 15.8 nM and the “β2 Intrinsic activity” value was determined as 0.8. Besides, in test [2], the IC50 was 0.126 nM.
